Patent US20140127231A1, “p38 MAPK Pathway Inhibitors as Female-Specific Therapeutics” (UNIVERSITY OF VERMONT, priority 2012, published 2014)
“Also recorded” adds a separate entry of the source.

Columns and labels:
[1] = system: Draining lymph node (DLN) cells; test: Draining lymph node cells of treated EAE mice restimulated with MOG35-55, cytokine ELISA; assay type: in vivo, C57BL/6J (B6) mice; conditions: DLN cells collected D20, restimulated with MOG35-55 for 3 days
From the text: Female B6 mice were immunized for EAE as described for FIG. 1 and treated daily with carrier or SB. On D30 post-immunization, CNS (brain and spinal cord) cells were harvested and analyzed by intracellular staining and flow cytometry. Relative percentages (out of CD4+TCRβ+ population) of IL-17+, IFN-γ+, or IL-17+ IFN-γ+ cells (FIG. 2A), and percentages of CD4+TCRβ+ cells (out of CD45+ cells) (FIG. 2B). DLN cells were collected on D20 and restimulated with MOG35-55 for 3 days. Production of IFN-γ+(FIG. 2C) or IL-17 (FIG. 2D) was assessed by ELISA.
EAE was induced in female C57BL/6J mice as described previously (Noubade et al., 2007, J Clin Invest., 117(11):3507-3518). […]
To examine the mechanism of EAE prevention by SB, the TH1 and TH17 effector subsets were analyzed in treated female mice. […] On D30 post-immunization, CNS (brain and spinal cord) cells were harvested and analyzed by intracellular staining and flow cytometry. […] Draining lymph node (DLN) cells were collected on D20 and restimulated with MOG35-55 for 3 days, and production of IFN-γ and IL-17 was assessed by ELISA.

[2] = system: Naïve CD4+ T cells cultured under TH17 polarizing conditions; test: In vitro TH17 differentiation of CD4+ T cells, IL-17 production; assay type: cell-based, mice; conditions: 3 days
Procedure: Naïve CD4+ T cells were purified by negative selection and cultured under TH17 polarizing conditions for 3 days in the presence of SB20350 (5 μM if not otherwise indicated). IL-17 secretion was analyzed by ELISA (FIG. 3A). Relative IL-17 mRNA was assessed by qRT-PCR (FIG. 3B). IL-17 levels were assessed using intracellular staining and flow cytometry (FIG. 3C).
Total CD4 T cells were isolated from spleen and lymph nodes as previously described (Noubade et al., 2007, J Clin Invest., 117(11):3507-3518), by negative selection for CD8-, MHC class II-, NK1.1- and CD11b-positive cells using magnetic beads from QIAGEN. For FACS sorting, negatively selected CD4 T cells were stained with anti-TCRβ-allophycocyanin and anti-CD4-Texas Red (Invitrogen), and sorted using a FACSAria cell sorting system (BD Biosciences). Th17 CD4 T cells were generated by activating total CD4 T cells (1×10^6 cells/mL) in RPMI containing 10% FBS (Hyclone), with plate bound anti-CD3 (5 μg/mL) and soluble anti-CD28 (1 μg/mL) mAbs from BD Pharmingen in the presence of 1 ng/mL TGFβ (PeproTech Inc), 30 ng/mL IL-6 (R&D Systems), 10 μg/mL anti-IFNγ, and 10 μg/mL anti-IL-4 mAbs. […]
For intracellular cytokine staining, either FACS-sorted or total CD4 T cells polarized to Th17 cells in the absence or the presence of 5 μM SB203580 were stimulated with 5 ng/mL PMA, 250 ng/mL ionomycin, and 2 μM monensin (Sigma-Aldrich) for the last 4 hours of culture. […] Cells were collected using a LSR II cytometer (BD Biosciences) and analyzed using FlowJo software (TreeStar Inc).
Total RNA was extracted from CD4 T cells using RNeasy RNA isolation reagent (QIAGEN) as recommended by the manufacturer. The generated cDNA was used in quantitative real-time PCR using the assay-on-demand (AOD) TaqMan probe and primers for IL-17A and β2-microglobulin (Applied Biosystems). β2-microglobulin was used as a reference gene and relative mRNA levels were calculated using the comparative CT method.
IL-17 production was analyzed by various methods including ELISA, qRT-PCR, and intracellular staining and flow cytometry.

With C[S+]([O-])c1ccc(-c2nc(-c3ccncc3)c(-c3ccc(F)cc3)[nH]2)cc1 (centres unmarked) [SB203580] the “IFN-γ production (ELISA)” value [1] was “did not decrease”, the “IL-17 production (ELISA)” value [1] was “specifically inhibited IL-17 production” and the “Cellular IL-17 protein levels (intracellular staining, flow cytometry)” value ([2]; 5 μM) was “decreased”. For the same molecule, the “IL-17 mRNA levels (qRT-PCR)” value ([2]; 5 μM) was “not significantly affected” and the “IL-17 production / secretion (ELISA)” value ([2]; inhibitor present, listed as SB) was “suppressed IL-17 production in a dose-dependent manner; also recorded: decreased; also recorded: reduced IL-17 production in vitro; also recorded: inhibits IL-17 production at a post-transcriptional level”.
